Data reported in patent publication US7691444B2, “Preservatives for wood-based products” (LANXESS Deutschland GmbH, priority 2002, dated 2010).
Where two headings read alike, the source gives them in different places.

Columns and labels:
Tyromyces palustris = experiment: Standard rot trial (Japan Wood Preservers Association Standard Test procedure) on glueline-treated plywood; format: cell-based; settings: phenol formaldehyde glue
[1] = cited from earlier work
[2] = Stability under the conditions of the glue-line treatment; format: physicochemical
decay causing fungi = experiment: Efficacy in the glue-line under alkaline conditions (PF type glues); settings: alkaline conditions such as PF type glues
[3] = use rate 100 gram a.i./m^3 in the glueline of plywood from pinus spp
[4] = use rate 200 gram a.i./m^3 in the glueline of plywood from pinus spp
[5] = use rate 400 gram a.i./m^3 in the glueline of plywood from pinus spp
[6] = use rate 800 gram a.i./m^3 in the glueline of plywood from pinus spp

| Structure (SMILES) | Efficacy against target organism (expressed as weight loss percent in a standard rot trial) (Tyromyces palustris; use rate 80 gram a.i./m^3 in the glueline of plywood from pinus spp) [%] | Efficacy against target organism (expressed as weight loss percent in a standard rot trial) (Tyromyces palustris; use rate 160 gram a.i./m^3 in the glueline of plywood from pinus spp) [%] | Efficacy against target organism (expressed as weight loss percent in a standard rot trial) (Tyromyces palustris; use rate 320 gram a.i./m^3 in the glueline of plywood from pinus spp) [%] | Efficacy against target organism (expressed as weight loss percent in a standard rot trial) (Tyromyces palustris; use rate 640 gram a.i./m^3 in the glueline of plywood from pinus spp) [%] | Use rate range (agricultural uses) [1] | Efficacy against target organism (expressed as weight loss percent in a standard rot trial) (Tyromyces palustris; [3]) [%] | Efficacy against target organism (expressed as weight loss percent in a standard rot trial) (Tyromyces palustris; [4]) [%] | Efficacy against target organism (expressed as weight loss percent in a standard rot trial) (Tyromyces palustris; [5]) [%] | Efficacy against target organism (expressed as weight loss percent in a standard rot trial) (Tyromyces palustris; [6]) [%] | Stability under the conditions of the glue-line treatment ([2]; glue-line treatment) | Efficacy relative to triadimefon (decay causing fungi) | Stability under the conditions of the glue-line treatment [2] |
| --- | --- | --- | --- | --- | --- | --- | --- | --- | --- | --- | --- | --- |
| CC(C)(C)C(O)(CCc1ccc(Cl)cc1)Cn1cncn1 (stereo not shown) [tebuconazole] | 9.2 | 20.9 | 6.3 | 18.5 | 100–250 g/ha |  |  |  |  |  |  |  |
| CCCC1COC(Cn2cncn2)(c2ccc(Cl)cc2Cl)O1 (stereo not shown) [propiconazole] |  |  |  |  | 100–150 g/ha | 20.5 | 7.6 | 21.4 | 1.8 |  |  |  |
| CC(C)(C)C(=O)C(Oc1ccc(Cl)cc1)n1cncn1 (racemic) [triadimefon, (±)1-(4-chlorophenoxy)-3,3-dimethyl-1-(1H-1,2,4-triazol-1-yl)butan-2-one] |  |  |  |  | 125–500 g/ha | 3.7 | 0.5 | 0.9 | 1.4 | stable |  |  |
| CC(C)(C)C(O)C(Oc1ccc(Cl)cc1)n1cncn1 (racemic) [triadimenol, (±) 1-(4-chlorophenoxy)-3,3-dimethyl-1-(1H-1,2,4-triazol-1-yl)butan-2-ol] |  |  |  |  | 125–500 g/ha |  |  |  |  |  | same efficacy as triadimefon | stable |
